Laboratory results as given in US20060173079A1, “Compositions and methods for improving the condition of patients suffering from copd and other diseases” (priority 2003, published 2006).
Entries after “also recorded” stand apart in the source; their conditions may differ.

How the values were obtained:
[1] = test system: whole body leucine turnover; test: Whole body leucine turnover (leucine tracer); type: in vivo, human
Method: FIG. 11: Whole body leucine rate of appearance gives a reflection of whole body leucine turnover and is the sum of leucine turnover coming from protein breakdown and from other (non-protein) sources.
(§1) The subjects were measured before and during a submaximal constant work rate cycle test of 20 minutes (at 50% of their maximal workload previously achieved during an incremental exercise test).

[2] = GLU appearance in plasma and splanchnic GLU extraction (stable isotope methodology); type: in vivo, human; conditions: young subjects, after start of GLU ingestion
[3] = Plasma GLU concentration after continuous ingestion of a glutamate enriched drink; type: in vivo, human
From the text: When using a continuous infusion protocol of stable isotopes, plasma glutamate concentrations have to be in steady state condition before metabolic data can be obtained.
Subsequently, we performed several pilot studies (summary see FIG. 1) in order to obtain the optimal dose of glutamate. Pilot studies included continuous ingestion of a glutamate enriched drink and evaluation of the concentration of glutamate and related amino acids in plasma.
In the 2nd pilot study, we decided to use the pure form of glutamate to avoid the large sodium content. […] Blood samples were taken to evaluate plasma glutamate level.
This protocol was used in further studies.

[4] = Plasma urea concentration after test drinks; type: in vivo, human; conditions: for plasma urea compared to baseline values: healthy control and COPD group, 30.0 mg GLU/kg or 29.8 mg glutamine/kg every 20 min for 4 hours
From the text: The 3 test drinks were studied on different days and in a randomized order using a similar study protocol.

[5] = Plasma lactate response to exercise; type: in vivo, human
Method: as §1

[6] = test system: whole body protein breakdown; test: Whole body protein breakdown (phenylalanine turnover, stable isotope methodology); type: in vivo, human; conditions: young healthy volunteers, during GLU supplementation
Method: In the young healthy volunteers, whole body protein and 3-methylhistidine turnover were measured during glutamate supplementation using stable isotope methodology. […] In order to elucidate the contribution of muscle to whole body protein metabolism, the rate of myofibrillar protein breakdown (3-methylhistidine turnover) was simultaneously measured.

[7] = test system: myofibrillar (muscle) protein breakdown; test: Myofibrillar protein breakdown (3-methylhistidine turnover / rate of appearance); type: in vivo, human; conditions: for 3-methylhistidine rate of appearance in plasma during exercise: submaximal cycle exercise 20 min at 50% maximal workload, GLU versus water
[8] = Side effects / tolerance incl. Chinese restaurant syndrome (food tolerance questionnaire); type: in vivo, human; conditions: for side effects / adverse complaints (including Chinese Restaurant syndrome symptoms): COPD patients and healthy control subjects, 6-7 g/hour for 4-6 hours
Method: In all the pilot studies, the patients and the healthy control subjects in the age ranging from 20 to 80 years were run through a protocol to determine feasibility.
In the experiments the intake of glutamate is usually in the order of 6-7 g/hour for a period of 4-6 hours meaning a total intake of […].
Moreover, a placebo (glutamine) was used for comparison.

[9] = cited from earlier work

For `N[C@@H](CCC(=O)O)C(=O)O` [GLU, L-glutamic acid], the “whole body leucine turnover not related to protein turnover” value ([1]; at rest, COPD and control subjects) was “reduction”, the “increase in whole body leucine turnover during exercise” value ([1]; cycle exercise 20 min at 50% maximal workload, 30 mg GLU/kg every 20 min versus water, COPD (and control) group) was “diminished the increase” and the “time to steady state of whole body GLU plasma appearance” value [2] was no more than 1.5 h. The “time to steady state in GLU concentration after start of ingestion” value ([3]; 4 subjects, 30 mg GLU/kg body weight every 20 min (FIG. 2)) was no more than 2 h, the “rise in plasma GLU concentration, COPD group versus control group” value ([3]; 8 COPD patients vs 8 healthy controls, 30 mg GLU/kg every 20 min) was “significantly lower” and the “plasma GLU level compared to baseline” value ([3]; COPD patients and healthy age-matched control subjects (both groups), 30 mg GLU/kg every 20 min, 120 min after start) was “significantly increased; also recorded: significant increase”. For the same compound, the “steady state in plasma glutamate level” value ([3]; healthy volunteers, 69.4 mg glutamate/kg body weight every 30 minutes (2.4% solution)) was 30 min intervals were too long to reach a steady state, the “time to steady state of plasma glutamate concentration” value ([3]; healthy young volunteers, 30 mg GLU/kg body weight every 20 min) was no more than 120 min and the “increase in the plasma glutamate concentration” value ([3]; healthy young volunteers, 30 mg GLU/kg body weight every 20 min (2.4% solution), total 300 mg/kg) was “about 500%”. For the same compound, the “plasma GLU concentration” value ([3]; healthy young volunteers, GLU added to carbohydrate (maltodextrin) whey protein meal (carbohydrate:protein:glutamate=5:2:5)) was “significantly increased to steady state values”, the “plasma urea compared to baseline values” [4] was “decreased” and the “plasma urea concentration after intake” value ([4]; healthy young volunteers, GLU with carbohydrate (maltodextrin) protein meal) was “decreased”. The “increase in plasma lactate concentration during exercise versus water” value ([5]; COPD group (text to FIG. 13)) was “lower increase”, the “increase in plasma lactate concentration during exercise versus water” value ([5]; healthy control group (FIG. 13 legend)) was “lower increase” and the “whole body protein breakdown rate (phenylalanine turnover)” value [6] was “gradual decrease; also recorded: significantly decreased”. For the same compound, the “myofibrillar protein breakdown during the first 10 minutes of exercise” value ([7]; COPD group, cycle exercise, ingesting glutamate) was “reduction”, the “3-methylhistidine rate of appearance in plasma during exercise” value ([7]; COPD group) was “abolished the increase” and the “3-methylhistidine rate of appearance in plasma during exercise” value ([7]; COPD group, listed as glutamate) was “diminished”. The “myofibrillar protein breakdown (3-methylhistidine turnover)” value ([7]; young healthy volunteers at rest, in less than one hour after GLU ingestion) was “reduction; also recorded: decreased”, the “CRS effects versus placebo (glutamine)” value ([8]; 26 healthy volunteers, 30 mg GLU/kg every 20 min) was “No significant differences” and the “number and severity of complaints versus placebo (glutamine)” value ([8]; 26 healthy volunteers, 30 mg GLU/kg every 20 min, questionnaire until 2 hours after last ingestion) was “No differences”. The “subjects having the symptoms known as Chinese restaurant syndrome” value ([8]; 26 healthy volunteers, 30 mg GLU/kg every 20 min, until 2 hours after ingestion) was “less than 5%”, the “side effects / adverse complaints (including Chinese Restaurant syndrome symptoms)” value [8] was “none” and the “side effects / adverse complaints (including Chinese Restaurant syndrome symptoms)” value ([8]; listed as glutamate) was “do not occur”.

For `N[C@@H](CCC(=O)O)C(=O)[O-].[Na+]` [MSG, monosodium glutamate], the “side effects after high (bolus) dose” value ([9]; Graham et al., healthy subjects, bolus MSG) is listed as “transient headaches”, the “plasma GLU concentration versus dose” value ([9]; Stegink et al. and Ghezzi et al., healthy volunteers, various concentrations of MSG) is listed as “increased proportionally to the given dose” and the “muscle GLU concentration” value ([9]; young healthy men, glutamate provided in excess as MSG) is listed as “increase”. For the same compound, the “tolerance of the drink” value ([8]; healthy volunteers, 3.6% MSG solution, 80.3 mg MSG/kg body weight every 30 minutes) was “well”.

For `NC(=O)CC[C@H](N)C(=O)O` [GLN, glutamine, reference compound], the “plasma urea compared to baseline values” [4] was “increased”.
